# According to article PMC5447021, “TNF Lectin-Like Domain Restores Epithelial Sodium Channel Function in Frameshift Mutants Associated with Pseudohypoaldosteronism Type 1B” (Frontiers in Immunology, 2017):
# Legend:
# αL576Xβγ-ENaC = conditions: cited from earlier work
# [1] = tested on: αS452fs (co-expressed with βγ-ENaC); assay: Whole-cell patch clamp, αS452fs + WT βγ; assay type: cell-based, human; conditions: read-out: EC50, solnatide, HEK-293, whole-cell, -100 mV, n = 5, p < 0.01 vs WT
# Description: Point mutations of α-, β-, γ- and δ-hENaC and PHA1B frameshift mutations of α-hENaC were prepared with the QuikChange Lightning Site-Directed Mutagenesis Kit (Agilent Technologies, CA, USA). Mutagenic primers were designed individually with the Primer Design Program provided on the producer’s website or for the frameshift mutations the same base changes as reported in patients (see Table 2) were performed. Primers were ordered from Sigma-Aldrich, Vienna, Austria.
# HEK-293 cells were transfected 1 day after cell seeding using X-tremeGENE HP DNA transfection reagent (Roche Diagnostics, Mannheim, Germany) according to the manufacturer’s protocol. A set of WT or mutant αβγ- or δβγ-hENaC, or α-, β-, γ-, or δ-hENaC alone was used, and the ratio of DNA to transfection reagent was 1:3. The expression was highest 48–72 h after transfection.
# Electrophysiological experiments were performed as described in detail by Shabbir et al. ([16]). […] Currents were recorded with the patch clamp method in the whole-cell mode. The chamber contained 1 ml of the bath solution of the following composition (in mM): 145 NaCl, 2.7 KCl, 1.8 CaCl2, 2 MgCl2, 5.5 glucose, and 10 HEPES, adjusted to pH 7.4 with 1 M NaOH solution. Micropipettes were pulled from thin-walled borosilicate glass capillaries (Harvard Apparatus, Holliston, MA, USA) with a DMZ Zeitz Puller to obtain electrode resistances ranging from 2 to 5 MΩ. […]
# [2] = tested on: V567A/E568A and V567A/E568A/E571A α-ENaC mutants; conditions: cited from earlier work
# Text: Lucas et al. ([31]) identified positions V567, E568, and E571 in the α-subunit as the crucial sites for binding of the lectin-like domain of TNF. They generated alanine replacement mutants in this region of α-ENaC and examined its interaction with the TIP peptide. […] In fact, this applies to all the frameshift mutants examined here.
smiles,measurement,setting,value
"C[C@@H]1NC(=O)CNC(=O)[C@H](CCC(=O)O)NC(=O)[C@@H]2CCCN2C(=O)[C@H]([C@@H](C)O)NC(=O)[C@H](CCC(=O)O)NC(=O)[C@H](CCCNC(=N)N)NC(=O)[C@H](CCC(N)=O)NC(=O)CNC(=O)[C@@H](N)CSSC[C@@H](C(=O)O)NC(=O)[C@H](Cc2ccc(O)cc2)NC(=O)[C@H](Cc2c[nH]c3ccccc23)NC(=O)[C@@H]2CCCN2C(=O)[C@H](CCCCN)NC(=O)[C@H](C)NC(=O)[C@H](CCC(=O)O)NC1=O [solnatide, L-cysteine, L-cysteinylglycyl-L-glutaminyl-L-arginyl-L-α-glutamyl-L-threonyl-L-prolyl-L-α-glutamylglycyl-L-alanyl-L-α-glutamyl-L-alanyl-L-lysyl-L-prolyl-L-tryptophyl-L-tyrosyl-, cyclic (1→17)-disulfide]",Effect of solnatide on amiloride-sensitive current,αL576Xβγ-ENaC,a residual albeit non-significant increase in the amiloride-sensitive current
same,"Current increase, glycosylation sites removed",αL576Xβγ-ENaC; glycosylation sites in extracellular loop removed by mutation,small increase was not seen
same,EC50,[1],68.5 ± 4.1 nM
same,Binding capacity,[2]; double V567A/E568A and triple V567A/E568A/E571A α-ENaC mutants,reduced binding capacity
same,Increase in Po,[2]; double and triple α-ENaC TM2 alanine mutants vs WT ENaC,abolition of the increase in Po
